Test results from patent publication US20080027143A1, “CHEMICAL FORMULATION FOR AN INSECTICIDE” (priority 2006, published 2008).

Legend:
Type in all cases: physicochemical
Viscosity of solvent = conditions: at 25 deg. C.
Description: Referring again to Table 5, release rates of 8.0 wt %/wt % Transfluthrin in solvent are strongly correlated to viscosity of solvent. A solvent viscosity of less than or substantially equal to about 4 centistokes (cSt) at 25 Celsius is preferred as release rates stay above 5 mg/hr. Release rates lower than 5 mg/hr require much higher concentration of insecticide (higher insecticidal concentrations lead to thickening of the formula which may become unacceptable to delivery via piezoelectric delivery systems). A solvent viscosity of less than or substantially equal to about 3 cSt is more preferred as this enables the insecticidal concentration(s) to be kept below 10%.

[1] = Release rate and evaporation loss from piezoelectric diffusion device (Table 5); conditions: for Evaporation Loss: OFF switch position, average of 30 hours; for Evaporation Loss / Release Rate in High Setting: 3 repetitions; for Release Rate in High Setting: ON, high switch setting, average of 13 hours
From the text: A highly permeable wick is used in the diffusion device 20 to ensure easy and effective transfer of the liquid from the tip of the wick to the orifice plate 110. In addition, the plug and wick holder 72 that is fitted to the reservoir 50 includes two small orifices to enable equilibration of pressure between the headspace in the reservoir and the surrounding atmosphere. These design factors lead to slow evaporation of the solvent regardless of where the device 20 is switched on or off. Solvents with high volatility tend to evaporate more rapidly leading to concentration of the insecticide in the reservoir 50. This increases the viscosity of the formula and slows down the overall release rates, leading to a negative impact on product performance. […] [table]

[2] = Release rates over 14 days for solvents with different boiling point ranges (Table 7)
From the text: The effect of solvents with different boiling point ranges on release rates were studied and the results are show in the following Table 7: [table]

[3] = Storage stability of insecticide in solvent
From the text: Stability data determined using analytical tools are given below:

[4] = With 8.0 wt %/wt % Transfluthrin in Solvent

Row | SMILES | Viscosity of Solvent (Viscosity of solvent) [cSt] | Evaporation Loss as Percent of Release Rate [1, 4] [%] | Evaporation Loss [1, 4] [mg/h] | Release Rate in High Setting [1, 4] [mg/h] | Evaporation Loss as Percent of Release Rate ([1]; With Pure Solvent) [%] | Evaporation Loss ([1]; With Pure Solvent) [mg/h] | Release Rate in High Setting ([1]; With Pure Solvent) [mg/h] | Residual Liquid ([2]; after the 14 days) | Average Release Rate during 1–5 days ([2]; high setting, average period of 7.1 hours per day, days 1–5) [mg/h] | Average Release Rate during 6–10 days ([2]; high setting, average period of 7.1 hours per day, days 6–10) [mg/h] | Average Release Rate during 11–14 days ([2]; high setting, average period of 7.1 hours per day, days 11–14) [mg/h] | Stability in hydrocarbon solvents (conclusion) [3]
1 | CCCOCC(C)O (stereo not shown) [DOWANOL ® PnP] | 2.7 | 73.1 | 16.05 | 22.0 | 38.4 | 9.73 | 25.3 | Zero | 19.1 | 18.0 | 10.0 | 
2 | C/C=C/C1C(C(=O)OCc2c(F)c(F)c(COC)c(F)c2F)C1(C)C (stereo not shown) [Metofluthrin] |  |  |  |  |  |  |  |  |  |  |  | stable
3 | CC1(C)[C@H](C=C(Cl)Cl)[C@H]1C(=O)OCc1c(F)c(F)cc(F)c1F [Transfluthrin] |  |  |  |  |  |  |  |  |  |  |  | stable
